Results reported in ChEMBL document CHEMBL4028801, “A multifactorial approach to hepatobiliary transporter assessment enables improved therapeutic compound development” (Toxicol Sci, 2013).
Each block holds one molecule with its values, some of them ahead of it.

Tests used:
[1] = Ratio of drug concentration at steady state in human at 800 mg, po TID after 8 hrs to IC50 for human MRP3 overexpressed in Sf9 insect cells; assay type: ADME, organism-based; conditions: in vivo
[2] = molecular target: ATP-binding cassette sub-family C member 2 (Homo sapiens, UniProt Q92887); experiment: Inhibition of human MRP2 overexpressed in Sf9 cell membrane vesicles assessed as uptake of [3H]-estradiol-17beta-D-glucuronide in presence of ATP and GSH measured after 20 mins by membrane vesicle transport assay
Chain of ATP-binding cassette sub-family C member 2 (Q92887 whole entry): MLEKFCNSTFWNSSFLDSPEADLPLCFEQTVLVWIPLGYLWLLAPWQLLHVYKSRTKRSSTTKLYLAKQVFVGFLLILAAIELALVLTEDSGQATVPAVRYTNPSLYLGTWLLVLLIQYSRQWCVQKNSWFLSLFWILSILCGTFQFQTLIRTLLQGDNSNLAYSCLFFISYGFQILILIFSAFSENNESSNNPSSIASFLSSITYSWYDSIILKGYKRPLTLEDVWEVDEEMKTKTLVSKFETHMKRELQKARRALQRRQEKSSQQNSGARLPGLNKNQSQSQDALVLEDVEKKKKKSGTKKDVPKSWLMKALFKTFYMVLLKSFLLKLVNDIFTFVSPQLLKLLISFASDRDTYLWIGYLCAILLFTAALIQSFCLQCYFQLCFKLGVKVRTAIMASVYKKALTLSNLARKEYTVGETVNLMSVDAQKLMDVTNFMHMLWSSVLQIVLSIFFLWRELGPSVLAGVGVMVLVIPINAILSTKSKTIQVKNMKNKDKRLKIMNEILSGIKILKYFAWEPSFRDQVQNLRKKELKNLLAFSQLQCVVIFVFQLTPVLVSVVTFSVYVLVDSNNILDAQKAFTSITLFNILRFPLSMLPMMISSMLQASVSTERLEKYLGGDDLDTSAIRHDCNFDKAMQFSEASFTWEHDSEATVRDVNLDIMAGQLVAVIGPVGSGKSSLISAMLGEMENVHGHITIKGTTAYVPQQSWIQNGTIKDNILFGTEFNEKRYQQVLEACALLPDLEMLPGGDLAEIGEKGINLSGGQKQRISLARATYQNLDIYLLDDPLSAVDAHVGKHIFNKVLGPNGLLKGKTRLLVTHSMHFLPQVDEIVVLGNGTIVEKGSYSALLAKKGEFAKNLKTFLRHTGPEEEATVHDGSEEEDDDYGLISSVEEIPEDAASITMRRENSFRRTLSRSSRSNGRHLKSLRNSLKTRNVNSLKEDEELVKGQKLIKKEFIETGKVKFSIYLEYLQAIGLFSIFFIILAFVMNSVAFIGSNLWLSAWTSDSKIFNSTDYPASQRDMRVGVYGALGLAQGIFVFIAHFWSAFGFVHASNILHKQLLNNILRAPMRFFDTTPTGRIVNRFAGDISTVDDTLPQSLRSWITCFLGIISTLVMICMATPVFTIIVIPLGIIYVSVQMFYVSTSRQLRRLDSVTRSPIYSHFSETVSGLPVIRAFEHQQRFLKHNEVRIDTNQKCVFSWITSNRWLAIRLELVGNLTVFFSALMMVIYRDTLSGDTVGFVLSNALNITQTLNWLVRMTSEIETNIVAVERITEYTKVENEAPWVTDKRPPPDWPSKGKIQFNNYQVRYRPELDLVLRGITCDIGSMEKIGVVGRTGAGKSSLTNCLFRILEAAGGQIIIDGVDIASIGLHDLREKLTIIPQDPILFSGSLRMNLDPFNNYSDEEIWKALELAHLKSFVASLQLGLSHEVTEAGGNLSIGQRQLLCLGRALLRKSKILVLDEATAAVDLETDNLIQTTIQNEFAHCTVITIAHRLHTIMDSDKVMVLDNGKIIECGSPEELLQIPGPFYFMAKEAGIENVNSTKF

[3] = Drug concentration at steady state in human at 800 mg, po TID after 8 hrs; assay type: ADME, organism-based; conditions: in vivo, read-out: Css
[4] = Ratio of drug concentration at steady state in human at 800 mg, po TID after 8 hrs to IC50 for human BSEP overexpressed in Sf9 insect cells; assay type: ADME, organism-based; conditions: in vivo
[5] = AUC in human at 800 mg, po TID after 8 hrs; assay type: ADME, organism-based; parameters: dose 800 mg, time < 8 hr, route oral; conditions: in vivo
[6] = molecular target: T1, ATP-binding cassette sub-family C member 4 (Homo sapiens, UniProt O15439); experiment: Inhibition of human MRP4 overexpressed in Sf9 cell membrane vesicles assessed as uptake of [3H]-estradiol-17beta-D-glucuronide in presence of ATP and GSH measured after 20 mins by membrane vesicle transport assay; assay type: ADME, cell-based
T1 sequence (O15439 whole entry): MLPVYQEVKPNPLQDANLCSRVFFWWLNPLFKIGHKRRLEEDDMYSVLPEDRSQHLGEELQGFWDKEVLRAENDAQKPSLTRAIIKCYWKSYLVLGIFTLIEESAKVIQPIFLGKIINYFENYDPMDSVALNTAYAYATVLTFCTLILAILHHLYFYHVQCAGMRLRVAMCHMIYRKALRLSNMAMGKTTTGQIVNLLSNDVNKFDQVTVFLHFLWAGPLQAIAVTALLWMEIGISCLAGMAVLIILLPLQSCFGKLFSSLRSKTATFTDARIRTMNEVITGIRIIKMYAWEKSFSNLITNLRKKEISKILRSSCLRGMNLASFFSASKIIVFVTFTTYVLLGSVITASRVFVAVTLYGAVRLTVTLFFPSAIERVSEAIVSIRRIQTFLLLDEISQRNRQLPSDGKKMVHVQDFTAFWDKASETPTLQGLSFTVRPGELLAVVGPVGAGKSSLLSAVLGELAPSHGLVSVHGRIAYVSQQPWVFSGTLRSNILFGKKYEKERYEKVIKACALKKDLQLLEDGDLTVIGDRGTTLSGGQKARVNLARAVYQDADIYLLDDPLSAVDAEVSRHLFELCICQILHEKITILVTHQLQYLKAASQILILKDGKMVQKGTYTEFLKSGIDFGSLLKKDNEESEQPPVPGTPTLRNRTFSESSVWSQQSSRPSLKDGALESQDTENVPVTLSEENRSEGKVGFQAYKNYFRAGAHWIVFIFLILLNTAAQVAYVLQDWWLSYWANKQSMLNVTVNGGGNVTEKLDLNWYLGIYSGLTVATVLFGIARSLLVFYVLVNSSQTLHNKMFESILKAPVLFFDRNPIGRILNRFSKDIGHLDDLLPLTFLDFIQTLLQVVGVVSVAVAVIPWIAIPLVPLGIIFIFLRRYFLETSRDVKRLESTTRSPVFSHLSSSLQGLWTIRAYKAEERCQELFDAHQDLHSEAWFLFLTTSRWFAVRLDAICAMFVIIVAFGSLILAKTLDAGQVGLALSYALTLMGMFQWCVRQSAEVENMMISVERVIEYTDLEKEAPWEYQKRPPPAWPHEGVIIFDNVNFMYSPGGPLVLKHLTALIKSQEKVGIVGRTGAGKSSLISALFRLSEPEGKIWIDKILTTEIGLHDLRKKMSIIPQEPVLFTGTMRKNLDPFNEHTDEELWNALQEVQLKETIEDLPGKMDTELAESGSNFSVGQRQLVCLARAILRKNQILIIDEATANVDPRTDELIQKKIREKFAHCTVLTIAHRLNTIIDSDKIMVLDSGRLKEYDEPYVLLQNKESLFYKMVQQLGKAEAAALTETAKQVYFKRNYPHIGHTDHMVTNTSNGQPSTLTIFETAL

[7] = molecular target: ATP-binding cassette sub-family C member 3 (Homo sapiens, UniProt O15438); experiment: Inhibition of human MRP3 overexpressed in Sf9 insect cell membrane vesicles assessed as uptake of [3H]-estradiol-17beta-D-glucuronide in presence of ATP and GSH measured after 10 mins by membrane vesicle transport assay; assay type: ADME, cell-based
Chain of ATP-binding cassette sub-family C member 3 (O15438 whole entry): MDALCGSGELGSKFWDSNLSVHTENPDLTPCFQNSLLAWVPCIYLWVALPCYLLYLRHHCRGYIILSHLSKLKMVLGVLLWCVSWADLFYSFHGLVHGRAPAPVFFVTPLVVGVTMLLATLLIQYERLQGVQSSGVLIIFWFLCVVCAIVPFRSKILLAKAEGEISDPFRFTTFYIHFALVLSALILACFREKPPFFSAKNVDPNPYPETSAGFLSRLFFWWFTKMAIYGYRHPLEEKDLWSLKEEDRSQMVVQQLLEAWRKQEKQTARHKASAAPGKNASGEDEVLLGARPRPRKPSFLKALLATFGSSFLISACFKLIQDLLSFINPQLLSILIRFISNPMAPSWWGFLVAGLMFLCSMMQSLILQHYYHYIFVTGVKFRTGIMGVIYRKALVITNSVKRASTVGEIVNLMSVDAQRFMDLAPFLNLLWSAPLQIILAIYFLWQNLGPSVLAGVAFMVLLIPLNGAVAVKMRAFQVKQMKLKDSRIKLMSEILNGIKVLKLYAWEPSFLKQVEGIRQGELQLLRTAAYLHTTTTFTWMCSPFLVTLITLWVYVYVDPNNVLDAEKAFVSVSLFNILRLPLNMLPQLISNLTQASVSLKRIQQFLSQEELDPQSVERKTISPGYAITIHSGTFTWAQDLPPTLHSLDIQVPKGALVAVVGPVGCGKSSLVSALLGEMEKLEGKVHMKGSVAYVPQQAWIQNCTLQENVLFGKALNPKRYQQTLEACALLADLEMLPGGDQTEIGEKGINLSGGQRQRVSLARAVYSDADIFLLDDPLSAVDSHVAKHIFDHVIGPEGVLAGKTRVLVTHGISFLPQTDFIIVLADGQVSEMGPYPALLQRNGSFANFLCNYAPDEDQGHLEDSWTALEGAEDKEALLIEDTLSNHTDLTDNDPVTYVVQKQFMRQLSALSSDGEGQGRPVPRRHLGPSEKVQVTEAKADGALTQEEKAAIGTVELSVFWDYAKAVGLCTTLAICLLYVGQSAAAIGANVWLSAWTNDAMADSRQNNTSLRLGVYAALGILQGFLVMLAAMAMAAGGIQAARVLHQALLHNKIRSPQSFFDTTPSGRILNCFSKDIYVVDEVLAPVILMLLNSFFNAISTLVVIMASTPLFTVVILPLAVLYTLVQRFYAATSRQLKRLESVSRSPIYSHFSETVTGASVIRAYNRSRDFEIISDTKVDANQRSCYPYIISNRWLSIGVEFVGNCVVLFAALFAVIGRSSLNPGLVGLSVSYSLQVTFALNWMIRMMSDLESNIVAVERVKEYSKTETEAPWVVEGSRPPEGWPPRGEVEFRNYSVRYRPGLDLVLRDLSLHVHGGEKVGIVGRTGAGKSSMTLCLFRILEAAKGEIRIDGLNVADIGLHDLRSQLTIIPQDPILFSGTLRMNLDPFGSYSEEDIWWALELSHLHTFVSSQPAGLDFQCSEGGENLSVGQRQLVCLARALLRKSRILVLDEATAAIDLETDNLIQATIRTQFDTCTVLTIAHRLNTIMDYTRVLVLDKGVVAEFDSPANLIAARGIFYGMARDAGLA

[8] = Ratio of drug concentration at steady state in human at 400 mg, po BID for 5 to 10 days after 12 hrs to IC50 for human BSEP overexpressed in Sf9 insect cells; assay type: ADME, organism-based; conditions: in vivo
Bile salt export pump = Bile salt export pump (Homo sapiens, UniProt O95342); experiment: Inhibition of human BSEP overexpressed in Sf9 cell membrane vesicles assessed as uptake of [3H]-taurocholate in presence of ATP measured after 15 to 20 mins by membrane vesicle transport assay; assay type: ADME, cell-based
Chain of Bile salt export pump (O95342 whole entry): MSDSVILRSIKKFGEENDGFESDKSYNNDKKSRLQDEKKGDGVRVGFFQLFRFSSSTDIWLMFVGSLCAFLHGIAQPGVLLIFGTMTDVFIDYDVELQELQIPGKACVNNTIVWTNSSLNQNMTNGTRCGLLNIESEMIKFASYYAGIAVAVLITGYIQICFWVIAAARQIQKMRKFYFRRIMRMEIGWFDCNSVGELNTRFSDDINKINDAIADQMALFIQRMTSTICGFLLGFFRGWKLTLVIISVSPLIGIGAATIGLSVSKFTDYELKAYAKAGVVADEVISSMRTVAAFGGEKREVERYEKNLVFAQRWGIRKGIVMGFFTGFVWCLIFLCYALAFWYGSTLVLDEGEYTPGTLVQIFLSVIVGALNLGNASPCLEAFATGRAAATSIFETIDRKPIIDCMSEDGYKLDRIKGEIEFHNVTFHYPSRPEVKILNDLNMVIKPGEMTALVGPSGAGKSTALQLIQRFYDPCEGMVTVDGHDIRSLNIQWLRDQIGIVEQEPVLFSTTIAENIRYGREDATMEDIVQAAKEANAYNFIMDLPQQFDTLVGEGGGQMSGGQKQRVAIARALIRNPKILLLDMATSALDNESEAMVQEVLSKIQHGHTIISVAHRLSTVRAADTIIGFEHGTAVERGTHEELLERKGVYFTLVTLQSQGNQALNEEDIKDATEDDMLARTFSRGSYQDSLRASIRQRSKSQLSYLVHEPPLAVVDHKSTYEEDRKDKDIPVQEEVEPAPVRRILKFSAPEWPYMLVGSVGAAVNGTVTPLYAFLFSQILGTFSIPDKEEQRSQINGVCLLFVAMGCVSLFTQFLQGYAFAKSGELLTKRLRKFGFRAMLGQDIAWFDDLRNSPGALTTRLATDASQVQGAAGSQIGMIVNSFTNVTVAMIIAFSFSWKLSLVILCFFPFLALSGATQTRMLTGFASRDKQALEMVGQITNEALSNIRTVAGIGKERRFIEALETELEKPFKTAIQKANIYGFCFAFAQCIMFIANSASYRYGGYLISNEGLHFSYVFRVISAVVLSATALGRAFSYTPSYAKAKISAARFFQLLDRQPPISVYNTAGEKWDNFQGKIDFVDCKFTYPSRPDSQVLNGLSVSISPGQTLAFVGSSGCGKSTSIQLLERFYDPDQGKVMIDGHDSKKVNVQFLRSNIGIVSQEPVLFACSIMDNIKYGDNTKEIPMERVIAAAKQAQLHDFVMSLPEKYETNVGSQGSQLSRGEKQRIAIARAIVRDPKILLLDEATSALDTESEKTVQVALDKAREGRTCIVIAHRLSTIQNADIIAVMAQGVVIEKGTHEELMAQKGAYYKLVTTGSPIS

[9] = AUC in human at 400 mg, po BID for 5 to 10 days after 12 hrs; assay type: ADME, organism-based; parameters: dose 400 mg, time < 12 hr, route oral; conditions: in vivo
[10] = Ratio of drug concentration at steady state in human at 400 mg, po BID for 5 to 10 days after 12 hrs to IC50 for human MRP4 overexpressed in Sf9 insect cells; assay type: ADME, organism-based; conditions: in vivo
[11] = Drug concentration at steady state in human at 400 mg, po BID for 5 to 10 days after 12 hrs; assay type: ADME, organism-based; conditions: in vivo, read-out: Css
[12] = Ratio of drug concentration at steady state in human at 75 to 100 mg, po QID after 6 hrs to IC50 for human BSEP overexpressed in Sf9 insect cells; assay type: ADME, organism-based; conditions: in vivo
[13] = Drug concentration at steady state in human at 75 to 100 mg, po QID after 6 hrs; assay type: ADME, organism-based; conditions: in vivo, read-out: Css
[14] = Ratio of drug concentration at steady state in human at 75 to 100 mg, po QID after 6 hrs to IC50 for human MRP4 overexpressed in Sf9 insect cells; assay type: ADME, organism-based; conditions: in vivo
[15] = AUC in human at 75 to 100 mg, po QID after 6 hrs; assay type: ADME, organism-based; conditions: in vivo
[16] = Drug concentration at steady state in human at 150 to 300 mg, po QD after 24 hrs; assay type: ADME, organism-based; conditions: in vivo, read-out: Css
[17] = Ratio of drug concentration at steady state in human at 150 to 300 mg, po QD after 24 hrs to IC50 for human BSEP overexpressed in Sf9 insect cells; assay type: ADME, organism-based; conditions: in vivo
[18] = AUC in human at 150 to 300 mg, po QD after 24 hrs; assay type: ADME, organism-based; conditions: in vivo
[19] = Ratio of drug concentration at steady state in human at 150 to 300 mg, po QD after 24 hrs to IC50 for human MRP4 overexpressed in Sf9 insect cells; assay type: ADME, organism-based; conditions: in vivo
[20] = Ratio of drug concentration at steady state in human at 150 to 300 mg, po QD after 24 hrs to IC50 for human MRP3 overexpressed in Sf9 insect cells; assay type: ADME, organism-based; conditions: in vivo
[21] = Ratio of drug concentration at steady state in human at 400 to 800 mg, po QD used as formulation with ritonavir measured after 24 hrs to IC50 for human MRP3 overexpressed in Sf9 insect cells; assay type: ADME, organism-based; conditions: in vivo
[22] = Ratio of drug concentration at steady state in human at 400 to 800 mg, po QD used as formulation with ritonavir measured after 24 hrs to IC50 for human BSEP overexpressed in Sf9 insect cells; assay type: ADME, organism-based; conditions: in vivo
[23] = Ratio of drug concentration at steady state in human at 400 to 800 mg, po QD used as formulation with ritonavir measured after 24 hrs to IC50 for human MRP4 overexpressed in Sf9 insect cells; assay type: ADME, organism-based; conditions: in vivo
[24] = Drug concentration at steady state in human at 400 to 800 mg, po QD used as formulation with ritonavir measured after 24 hrs; assay type: ADME, organism-based; conditions: in vivo, read-out: Css
[25] = AUC in human at 400 to 800 mg, po QD used as formulation with ritonavir measured after 24 hrs; assay type: ADME, organism-based; conditions: in vivo
[26] = Ratio of drug concentration at steady state in human at 80 to 600 mg, po QD after 24 hrs to IC50 for human BSEP overexpressed in Sf9 insect cells; assay type: ADME, organism-based; conditions: in vivo
[27] = Drug concentration at steady state in human at 80 to 600 mg, po QD after 24 hrs; assay type: ADME, organism-based; conditions: in vivo, read-out: Css
[28] = AUC in human at 80 to 600 mg, po QD after 24 hrs; assay type: ADME, organism-based; conditions: in vivo
[29] = Ratio of drug concentration at steady state in human at 80 to 600 mg, po QD after 24 hrs to IC50 for human MRP4 overexpressed in Sf9 insect cells; assay type: ADME, organism-based; conditions: in vivo

Structure (SMILES): CC(C)(C)NC(=O)[C@@H]1CN(Cc2cccnc2)CCN1C[C@@H](O)C[C@@H](Cc1ccccc1)C(=O)N[C@H]1c2ccccc2C[C@H]1O.O
Ratio [1]: 0.068
IC50 [2]: > 133 µM
concentration at 8 h [3]: 5.64 µM
Ratio [4]: 0.266
AUC at 8 h [5]: 45.1 µM·h
IC50 [6]: > 133 µM
IC50 [7]: 83 µM

IC50 [2]: > 133 µM
AUC at 12 h [9]: 11.6 µM·h
Ratio [10]: 0.136
IC50 [6]: 7.1 µM
concentration at 12 h [11]: 0.964 µM
IC50 [7]: > 133 µM
Structure (SMILES): CC[C@H]1OC(=O)[C@H](C)C(=O)[C@H](C)[C@@H](O[C@@H]2O[C@H](C)C[C@H](N(C)C)[C@H]2O)[C@](C)(OC)C[C@@H](C)C(=O)[C@H](C)[C@H]2N(CCCCn3cnc(-c4cccnc4)c3)C(=O)O[C@]12C [TELITHROMYCIN]
Ratio [8]: 0.193
IC50 (Bile salt export pump): 5 µM

IC50 [2]: > 133 µM
concentration at 6 h [13]: 1.14 µM
Ratio [14]: 0.137
IC50 [6]: 8.3 µM
AUC at 6 h [15]: 6.82 µM·h
IC50 [7]: > 133 µM
Structure (SMILES): OCCN(CCO)c1nc(N2CCCCC2)c2nc(N(CCO)CCO)nc(N3CCCCC3)c2n1 [DIPYRIDAMOLE]
Ratio [12]: 0.303
IC50 (Bile salt export pump): 4 µM

concentration at 24 h [16]: 2.2 µM
AUC at 24 h [18]: 52.9 µM·h
Ratio [19]: 0.026
IC50 [6]: 83.2 µM
IC50 [7]: 21.1 µM
Ratio [20]: 0.104
Structure (SMILES): CCCCC1=NC2(CCCC2)C(=O)N1Cc1ccc(-c2ccccc2-c2nnn[nH]2)cc1 [IRBESARTAN]
Ratio [17]: 0.301
IC50 (Bile salt export pump): 7.31 µM

Structure (SMILES): Cc1cccc(C)c1OCC(=O)N[C@@H](Cc1ccccc1)[C@@H](O)C[C@H](Cc1ccccc1)NC(=O)[C@H](C(C)C)N1CCCNC1=O [LOPINAVIR]
Ratio [21]: 0.314
Ratio [22]: 0.381
Ratio [23]: 0.14
IC50 [2]: > 133 µM
concentration at 24 h [24]: 6.6 µM
AUC at 24 h [25]: 158 µM·h
IC50 [6]: 47 µM
IC50 [7]: 21 µM

concentration at 24 h [27]: 11.8 µM
AUC at 24 h [28]: 284 µM·h
Ratio [29]: 11.849
IC50 [2]: > 133 µM
IC50 [6]: 1 µM
IC50 [7]: > 133 µM
Structure (SMILES): COc1ccc(/C=C/C(=O)Nc2ccccc2C(=O)O)cc1OC
Ratio [26]: 0.286
IC50 (Bile salt export pump): 41.5 µM
